The results in this text go back to patent US11976062B2, “Benzisoxazole compound” (OSAKA UNIVERSITY, priority 2018, dated 2024).

For one experiment, the target named is T1, TRPC6 channel (Homo sapiens, UniProt Q9Y210).
T1 construct: expressed in transfected cells; host or cells: HEK293
T1 sequence (Q9Y210 1-931): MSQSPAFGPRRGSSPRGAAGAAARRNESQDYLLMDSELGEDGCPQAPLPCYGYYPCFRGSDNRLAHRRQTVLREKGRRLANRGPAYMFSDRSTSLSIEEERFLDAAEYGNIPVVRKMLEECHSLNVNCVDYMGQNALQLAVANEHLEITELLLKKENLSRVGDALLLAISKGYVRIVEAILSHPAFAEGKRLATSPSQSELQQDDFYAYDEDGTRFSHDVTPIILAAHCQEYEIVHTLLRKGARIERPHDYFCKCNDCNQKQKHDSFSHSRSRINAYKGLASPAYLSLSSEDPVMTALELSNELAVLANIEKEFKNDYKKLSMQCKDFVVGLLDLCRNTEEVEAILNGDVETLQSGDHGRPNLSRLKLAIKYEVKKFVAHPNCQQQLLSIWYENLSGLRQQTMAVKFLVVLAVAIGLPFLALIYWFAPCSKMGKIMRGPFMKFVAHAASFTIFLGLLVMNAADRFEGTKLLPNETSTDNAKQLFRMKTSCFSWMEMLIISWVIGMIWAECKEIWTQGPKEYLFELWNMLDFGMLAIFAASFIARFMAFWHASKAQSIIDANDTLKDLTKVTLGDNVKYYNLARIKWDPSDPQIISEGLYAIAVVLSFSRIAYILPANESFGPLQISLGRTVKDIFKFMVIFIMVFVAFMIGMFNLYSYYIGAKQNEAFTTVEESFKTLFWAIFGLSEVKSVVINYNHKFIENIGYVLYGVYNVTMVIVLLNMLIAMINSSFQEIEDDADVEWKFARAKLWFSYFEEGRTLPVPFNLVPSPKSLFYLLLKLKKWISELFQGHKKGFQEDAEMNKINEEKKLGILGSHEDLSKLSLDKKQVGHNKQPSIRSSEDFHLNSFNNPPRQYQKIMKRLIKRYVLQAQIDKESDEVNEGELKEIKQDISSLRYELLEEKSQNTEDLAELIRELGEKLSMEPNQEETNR
The experiment is described as follows: Electrophysiological evaluation (whole-cell patch) using HEK293 cells transiently expressing TRPC6 channel. It is filed as cell-based. To be noted: 30 μM for 30 seconds, carbachol 100 μM, holding potential −50 mV. As to the method:
Evaluation was performed using TRPC6-expressing cells cultured in the same manner as in Test Example 1. The transfected cells were placed in a chamber set in a microscope, and TRPC6 current was measured with a patch glass electrode (5 to 10 MΩ) in whole-cell mode. The extracellular solution and intracellular solution used in this evaluation are listed below.
Extracellular Solution: 140 mM NaCl, 5 mM KCl, 1 mM CaCl2, 1.2 mM MgCl2, 10 mM Glucose, 10 mM HEPES (pH 7.4)
Intracellular Solution: 120 mM CsOH, 120 mM Aspartate, 20 mM CsCl, 2 mM MgCl2, 1.5 mM CaCl2, 5 mM EGTA, 10 mM Glucose, 10 mM HEPES, 2 mM ATP-Na, 0.1 mM GTP (pH 7.4)
The holding potential was fixed at −50 mV. TRPC current was evoked by adding carbachol (100 μM) to the cells. Evaluation was performed on the change in current caused by adding 30 μM of a test compound (compound 011) to the cells for 30 seconds after 20 seconds from the addition of carbachol.

Experiment [1] relates to α-SMA expression induced by TGFβ1 in dermal fibroblasts. The experiment is described as follows: Fibrosis inhibition evaluation 2: immunofluorescent staining of α-SMA in dermal fibroblasts. Type of experiment: cell-based, mice. To be noted: 10 μM, TGFβ1 10 ng/ml, 48 hours, FIG. 7. As for the experimental part: In the same manner as in Test Example 5, dermal fibroblasts were isolated from mice, and sterilized cover glass (diameter: 12 mm) was placed in a 12-well plate. On the cover glass, 2.5×10^5 cells were seeded and grown. After 24 hours, the medium was replaced with a medium free of fetal bovine serum, and the cells were cultured for another 24 hours. Separately, cardiac fibroblasts were isolated from 1 to 2-day-old rats and treated in the same manner as for the dermal fibroblasts. Thereafter, 10 ng/ml TGFβ1 was added to the dermal fibroblasts, and 2 ng/ml TGFβ2 was added to the cardiac fibroblasts, followed by culturing the cells for 48 hours. At the same time as TGFβ was added, 10 μM of a test compound (compound 011), 10 μM of Pyr 2 (conventional inhibitor), or DMSO (solvent control) was also added. Separately, cultured cells to which TGFβ-free phosphate buffered saline (PBS) was added were also prepared. […] After blocking with 1% bovine serum albumin, α-SMA was detected using anti-α-SMA antibody (Sigma) as the primary antibody and anti-mouse IgG antibody (Molecular Probes) fused with Alexa 488 as the secondary antibody, and an image was acquired using a fluorescence microscope (Keyence) with a 20× objective lens. The average fluorescence brightness (fluorescence intensity/pixel) per cell area was calculated and analyzed using Image J software.

Regarding `O=C(O)c1cnc(N2CCN(c3noc4cccc(C(F)(F)F)c34)CC2)c(Cl)c1` [Compound 011, 5-chloro-6-(4-(4-(trifluoromethyl)benzo[d]isoxazol-3-yl)piperazin-1-yl) nicotinic acid], the “change in TRPC6 current evoked by carbachol” value at TRPC6 channel is listed as “significant decrease in the amount of current”. Besides, the “expression of α-SMA induced by TGFβ (immunofluorescent staining)” value in experiment [1] is “almost completely suppressed the expression of α-SMA”.
